For assay [1], the system named is MCF-7 cells. The assay is described as follows: MTT cytotoxicity assay, MCF-7 breast cancer cells. It is filed as cell-based. As to conditions: Homo sapiens, MCF7; MTT assay; mean ± SD of three independent trials; read-out: IC50 ± SD, MCF-7. How it is done:
(§1) All cells were incubated at 37 °C in 5% carbon dioxide atmosphere (NuAire). Cells were plated at a density of 5x10^4 cells in triplicates in a plate of 96 wells. On the second day, cells were treated with the compounds with concentrations of (0.01, 0.1, 1, 10, and 100 µM). Cell viability was assessed using the MTT assay [6].
In general terms: Tetrazolium dyes change colour on reduction, which living cells bring about.

In a further assay the test system is MDA-MB-231 cells. The assay is described as follows: MTT cytotoxicity assay, MDA-MB-231 breast cancer cells. As to conditions: Homo sapiens, MDA-MB-231, MTT assay; mean ± SD of three independent trials; read-out: IC50 ± SD, MDA-MB-231. In kind it is cell-based. The protocol: as §1
A further assay has as its system WISH cells. The experiment in a line: MTT cytotoxicity (safety) assay, normal WISH cells. To be noted: mean ± SD of three independent trials. It is filed as cell-based. How it is done:
The cytotoxicity of the synthesized compounds was tested using the MTT assay on breast cancer cells (MCF-7 and MDA-MB-231).
The methods for the Cytotoxic activity ([Mosmann, 1983]; [Nafie et al., 2020a]); EGFR/CDK-2 enzyme inhibition ([Nafie et al., 2022a]); Flow cytometry using Annexin V/PI staining; Gene expression analysis using RT-PCR ([Nafie et al., 2022b]); are amended in the Supplementary Material S1.
Both breast cancer; MCF-7 and MDA-MB-231 and normal (WISH) cells were purchased from the National Research Institute, Egypt, and maintained in RPMI-1640 medium L-Glutamine (Lonza Verviers SPRL, Belgium, cat#12-604F). All cells were incubated at 37 °C in 5% carbon dioxide atmosphere (NuAire). Cells were plated at a density of 5x10^4 cells in triplicates in a plate of 96 wells. On the second day, cells were treated with the compounds with concentrations of (0.01, 0.1, 1, 10, and 100 µM). Cell viability was assessed using the MTT assay [6].

The target of a further assay is T1, EGFR kinase (Homo sapiens, UniProt P00533).
T1 construct: purchased BPS Bioscience Corporation 40321
T1 sequence (P00533 25-1210): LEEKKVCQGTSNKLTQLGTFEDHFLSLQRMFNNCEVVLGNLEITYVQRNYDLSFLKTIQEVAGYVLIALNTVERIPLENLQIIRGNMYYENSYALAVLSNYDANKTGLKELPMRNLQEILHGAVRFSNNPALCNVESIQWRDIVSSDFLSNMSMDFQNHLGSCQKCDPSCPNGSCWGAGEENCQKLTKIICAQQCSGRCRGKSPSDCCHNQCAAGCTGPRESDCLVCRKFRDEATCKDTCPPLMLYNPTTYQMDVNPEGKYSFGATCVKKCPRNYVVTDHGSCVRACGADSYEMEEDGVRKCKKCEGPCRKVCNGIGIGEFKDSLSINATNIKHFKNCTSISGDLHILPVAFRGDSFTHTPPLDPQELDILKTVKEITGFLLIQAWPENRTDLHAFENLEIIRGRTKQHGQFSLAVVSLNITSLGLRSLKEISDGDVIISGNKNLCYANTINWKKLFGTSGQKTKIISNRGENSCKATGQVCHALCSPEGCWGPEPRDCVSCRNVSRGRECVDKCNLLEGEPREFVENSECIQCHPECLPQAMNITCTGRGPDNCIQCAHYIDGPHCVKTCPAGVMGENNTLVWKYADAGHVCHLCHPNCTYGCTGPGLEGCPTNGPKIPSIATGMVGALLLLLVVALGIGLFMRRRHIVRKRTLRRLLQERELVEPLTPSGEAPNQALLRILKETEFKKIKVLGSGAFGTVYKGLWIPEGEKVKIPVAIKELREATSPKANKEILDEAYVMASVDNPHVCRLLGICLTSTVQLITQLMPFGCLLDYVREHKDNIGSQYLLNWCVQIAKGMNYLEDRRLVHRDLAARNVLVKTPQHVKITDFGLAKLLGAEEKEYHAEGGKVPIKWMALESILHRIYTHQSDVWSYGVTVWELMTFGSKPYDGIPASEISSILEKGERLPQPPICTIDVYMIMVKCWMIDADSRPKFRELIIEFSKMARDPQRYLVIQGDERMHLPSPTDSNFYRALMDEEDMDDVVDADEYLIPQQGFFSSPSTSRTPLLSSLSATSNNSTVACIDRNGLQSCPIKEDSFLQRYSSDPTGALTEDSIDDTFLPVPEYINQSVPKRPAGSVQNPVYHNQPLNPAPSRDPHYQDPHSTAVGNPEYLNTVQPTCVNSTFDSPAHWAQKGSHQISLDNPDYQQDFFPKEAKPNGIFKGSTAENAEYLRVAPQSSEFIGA
The experiment in a line: EGFR kinase inhibition assay. To be noted: for % remaining EGFR kinase activity (relative to control): signal relative to control. It is filed as biochemical. The protocol: (§2) Inhibitory activities of 5g, 5l, and 5n were tested against EGFR and CDK-2.
(§3) Plus, Promega, USA) inhibition assay.

A further assay deals with T2, CDK-2 kinase (Homo sapiens, UniProt P24941).
T2 construct: purchased not clearly printed (Promega, USA is printed after 'Kinase-Glo Plus'; #79599 is a BPS Bioscience number to my knowledge) 79599
The experiment in a line: CDK-2 kinase inhibition assay (Kinase-Glo Plus). It is filed as biochemical. As to conditions: for CDK-2 kinase activity remaining (% of control): signal relative to control. How it is done: as §2, §3

Assay [2] relates to MCF-7 cells. The experiment in a line: Annexin V/PI staining flow cytometry (apoptosis/necrosis). It is filed as cell-based. As to conditions: MCF-7, at the IC50 value, 48 h. How it is done:
The apoptotic activity of compounds 5g was determined by flow cytometric analysis of Annexin V/PI staining of untreated and treated MCF-7 cells. […] Additionally, they induced necrotic cell death by 5.43% compared to 2.12% in the untreated control.
FIGURE 4 (A) Bar representation of the percentage of apoptosis (early and late apoptotic cell population) using Annexin V/Propidium Iodide staining.
MCF-7 cells were seeded into 6-well culture plates (3-5× 10^5 cells/well) and incubated overnight. […] Next, media supernatants and cells were collected and rinsed with ice-cold PBS. Then cells were suspended the cells in 100 µL of annexin binding buffer solution "25 mM CaCl2, 1.4 M NaCl, and 0.1 M Hepes/NaOH, pH 7.4” and incubation with “Annexin V-FITC solution (1:100) and propidium iodide (PI)” at a concentration equals 10 µg/mL in the dark for 30 min. Stained cells were then acquired by BD FACSCalibur™ Flow Cytometer.
A general note: Flow cytometry measures light scatter and fluorescence of single cells or particles in a stream.

In assay [3] the test system is MCF-7 cells. The assay is described as follows: Cell cycle analysis by flow cytometry. In kind it is cell-based. To be noted: MCF-7, at the IC50 value, 48 h.
The test system of assay [4] is MCF-7 cells. The assay is described as follows: RT-PCR gene expression of apoptosis-related genes. It is filed as cell-based. To be noted: MCF-7, at the IC50 value, 48 h. The text has this: Both the untreated and treated MCF-7 cells were subjected to RT-PCR to confirm apoptotic cell death (Figure 5). […] These findings are in line with the possibility of triggering cell death by blocking enzymes. Activation of the intrinsic apoptotic pathway leads to mitochondrial potential loss and cytochrome c release. When the ratio of proteins that promote cell death to those that prevent it rises, a cascade reaction involving caspases 3 and 9 is set in motion, leading to cell death by caspase-dependent apoptosis.
“Values are expressed as Mean ± SD of three independent replicates”. “Data were normalized using β-actin as house-keeping gene. The dashed line represents the gene expression level of untreated control. Fold change was calculated using 2^^- ΔΔCT”.
Gene expression of Bcl-2, the anti-apoptotic gene, and the pro-apoptotic genes P53, Bax, and Caspapses-3,8,9 were examined to delve deeper into the apoptotic pathway. […] After treatment, RT-PCR reaction was carried out following routine work. Then, the Ct values were collected to calculate the relative genes’ expression in all samples by normalization to the β-actin housekeeping gene.

The next assay concerns MCF-7. Also on record: method as in Al-Jassas, et al., 2023. To be noted: ref Al-Jassas, et al., 2023; cited from earlier work.
Another assay deals with HepG2. Also on record: method as in Al-Jassas, et al., 2023. To be noted: ref Al-Jassas, et al., 2023; cited from earlier work.
The next assay has as its system CDK-2. Further details: method as in Al-Jassas, et al., 2023. As to conditions: ref Al-Jassas, et al., 2023; read-out: CDK-2 inhibition; cited from earlier work.
Another assay concerns EGFR. Also on record: method as in Al-Jassas, et al., 2023. To be noted: ref Al-Jassas, et al., 2023; read-out: IC50 for EGFR inhibition; cited from earlier work.
The subject of a further assay is A549 cells. Also on record: method as in Barakat, et al., 2023. As to conditions: ref Barakat, et al., 2023, cited from earlier work.
The mark [5] stands for this setting: average of three independent replicates.

Consider three compounds from article PMC10937419, “Exploring pyrrolidinyl-spirooxindole natural products as promising platforms for the synthesis of novel spirooxindoles as EGFR/CDK2 inhibitors for halting breast cancer cells” (Frontiers in Chemistry, 2024).

Usually inhibition stands for the share of the control response that was lost under treatment.

On to `O=C(O)CN1C(=O)S[C@@]2(C1=O)[C@@H](c1ccc(Cl)cc1)[C@H]1CSCN1[C@@]21C(=O)Nc2ccc(Br)cc21` [Compound 5g, 2-((3S,6′S,7′S,7a′S)-5-bromo-7'-(4-chlorophenyl)-2,2″,4″-trioxo-7′,7a′-dihydro-1′H,3′H-dispiro [indoline-3,5′-pyrrolo [1,2-c]thiazole-6′,5″-thiazolidin]-3″-yl)acetic acid], for which the IC50 with MCF-7 cells [1] was determined as 2800 ± 400 nM; in the assay with MDA-MB-231 cells, 23500 ± 900 nM; with WISH cells, 39300 ± 1800 nM; on EGFR kinase (setting [5]), 26 ± 6 nM; at CDK-2 kinase (setting [5]), 301 nM. The “% remaining EGFR kinase activity (relative to control)” value came out at 90.58% on EGFR kinase (0.01 µM, ΔT=30 min); 69.72% on EGFR kinase (0.1 µM, ΔT=30 min); 40.27% on EGFR kinase (1 µM, ΔT=30 min); 33.39% at EGFR kinase (2.5 µM, ΔT=30 min); 31.63% at EGFR kinase (5 µM, ΔT=30 min); 7.867% at EGFR kinase (10 µM, ΔT=30 min). Besides, the inhibition at 0.01 µM against EGFR kinase (0.01 µM, ΔT=30 min) came to 9.42%; on CDK-2 kinase (0.01 µM, ΔT=30 min, read-out: % of inhibition, CDK2), 9.89%. For the same compound, the inhibition at 0.1 µM against EGFR kinase (0.1 µM, ΔT=30 min) stood at 30.3%; on CDK-2 kinase (0.1 µM, ΔT=30 min, read-out: % of inhibition, CDK2) it was 21.5%. The inhibition at 1 µM at EGFR kinase (1 µM, ΔT=30 min) was 59.7%; at CDK-2 kinase (1 µM, ΔT=30 min, read-out: % of inhibition, CDK2), 35.5%. The inhibition at 2.5 µM is 66.6% at EGFR kinase (2.5 µM, ΔT=30 min) and 39.3% on CDK-2 kinase (2.5 µM, ΔT=30 min, read-out: % of inhibition, CDK2). Also, the inhibition at 5 µM was 68.4% on EGFR kinase (5 µM, ΔT=30 min) and 66% on CDK-2 kinase (5 µM, ΔT=30 min, read-out: % of inhibition, CDK2). Besides, the inhibition at 10 µM at EGFR kinase (10 µM, ΔT=30 min) was determined as 92.6%; on CDK-2 kinase (10 µM, ΔT=30 min, read-out: % of inhibition, CDK2), 91.9%. Moreover, the “% Of EGFR inhibition” value on EGFR kinase (concentration not given in Table 2, matches 10 µM in the 4th table) is given as 92.6 ± 1.9%. Moreover, the “CDK-2 kinase activity remaining (% of control)” value at CDK-2 kinase (0.01 µM, ΔT=30 min) was 90.11%; on CDK-2 kinase (0.1 µM, ΔT=30 min), 78.5%; on CDK-2 kinase (1 µM, ΔT=30 min) it was 64.55%; at CDK-2 kinase (2.5 µM, ΔT=30 min) it was 60.7%; on CDK-2 kinase (5 µM, ΔT=30 min), 33.99%; at CDK-2 kinase (10 µM, ΔT=30 min), 27.2254%. The early apoptosis with MCF-7 cells [2] was 21.87%. Besides, the late apoptosis in the assay on MCF-7 cells [2] is 10.15%. The compound also registered a necrotic cell death in the assay with MCF-7 cells [2] (untreated control 2.12%) of 5.43%. Moreover, the “cell population in the G0-G1-phase” value with MCF-7 cells [3] (control 31%) is 39.8%. Further, in the assay with MCF-7 cells [3] (control 32.1%), the “cell population in the S-phase” value came out at 45.2%. For the same compound, in the assay on MCF-7 cells [3] (versus untreated control), the “cells population at G2/M phase” value is “decreased”. Also, in the assay with MCF-7 cells [4] (anti-apoptotic gene, downregulated), the “Bcl-2 gene expression fold change” value is listed as 0.39 fold. Moreover, the “Bax gene expression fold change” value with MCF-7 cells [4] (normalized to β-actin, 2^-ΔΔCT) is reported as 6.26 fold. Besides, the “P53 gene expression fold change” value in the assay on MCF-7 cells [4] (normalized to β-actin, 2^-ΔΔCT) was determined as 4.1 fold. For the same compound, in the assay on MCF-7 cells [4] (normalized to β-actin, 2^-ΔΔCT), the “caspase 3 gene expression fold change” value stood at 9.2 fold. The “caspase 8 gene expression fold change” value in the assay with MCF-7 cells [4] (normalized to β-actin, 2^-ΔΔCT) came to 1.7 fold. For the same compound, the “caspase 9 gene expression fold change” value with MCF-7 cells [4] (normalized to β-actin, 2^-ΔΔCT) is listed as 6.13 fold.
Turning to `O=C(c1ccc(Br)cc1)[C@H]1[C@H](c2cn(-c3ccccc3)nc2-c2ccccc2)C2CC3CCCCC3N2[C@]12C(=O)Nc1ccc(Cl)cc12` (stereo partly drawn) [Compound II], the IC50 was 189 ± 10 nM with MCF-7, 1040 ± 210 nM in the assay with HepG2, 35 nM with CDK-2 and 96.6 nM in the assay with EGFR.
Take `O=C(c1nc2ccccc2[nH]1)[C@H]1[C@H](c2ccc(Cl)cc2Cl)C2CC3CCCCC3N2[C@@]12c1ccccc1-c1nc3ccccc3nc12` (stereo partly drawn) [hit III]: the “selectivity index (SI)” value in the assay on A549 cells (A549 cells versus normal lung fibroblasts Wi-38) is reported as 6.64. For the same compound, the IC50 with A549 cells is 54 nM.
